Measured values taken from patent US20100267561A1, “HERBICIDAL PYRIDAZINONE DERIVATIVES” (priority 2007, published 2010).

Experiments:
Format in all cases: in vivo
[1] = system: pigweed (Amaranthus retroflexus); assay: Test A pre-/postemergence plant response
How it was run: (§1)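 Both pre- and postemergence treatment given concurrently; postemergence seedlings measured 2–10 cm at the one- to two-leaf stage. Visual injury, 0–100 scale versus untreated, at ~10 days.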

[2] = system: wheat (Triticum aestivum); assay: Test A pre-/postemergence plant response
How it was run: as §1

[3] = system: giant foxtail (Setaria faberi); assay: Test A pre-/postemergence plant response
How it was run: as §1

[4] = system: velvetleaf (Abutilon theophrasti); assay: Test A pre-/postemergence plant response
How it was run: as §1

corn (Zea mays) = assay: Test A pre-/postemergence plant response
How it was run: as §1

[5] = system: large crabgrass (Digitaria sanguinalis); assay: Test A pre-/postemergence plant response
How it was run: as §1

[6] = system: morningglory (Ipomoea coccinea); assay: Test A pre-/postemergence plant response
How it was run: as §1

[7] = system: barnyardgrass (Echinochloa crus-galli); assay: Test A pre-/postemergence plant response
How it was run: as §1

[8] = system: morningglory (Ipomoea coccinea); assay: Test B pre-/postemergence plant response
Description: (§2) Seeds of plant species selected from blackgrass (Alopecurus myosuroides), downy bromegrass (Bromus tectorum), green foxtail (Setaria viridis), Italian ryegrass (Lolium multiflorum), wheat (Triticum aestivum), wild oat (Avena fatua), catchweed bedstraw (Galium aparine), bermudagrass (Cynodon dactylon), surinam grass (Brachiaria decumbens), cocklebur (Xanthium strumarium), corn (Zea mays), large crabgrass (Digitaria sanguinalis), woolly cupgrass (Eriochloa villosa), giant foxtail (Setaria faberii), goosegrass (Eleusine indica), johnsongrass (Sorghum halepense), kochia (Kochia scoparia), lambsquarters (Chenopodium album), morningglory (Ipomoea coccinea), eastern black (E.B.) nightshade (Solanum ptycanthum), yellow nutsedge (Cyperus esculentus), pigweed (Amaranthus retroflexus), common ragweed (Ambrosia elation), Russian thistle (Salsola iberica), soybean (Glycine max), common (oilseed) sunflower (Helianthus annuus), and velvetleaf (Abutilon theophrasti) were planted and treated preemergence with test chemicals formulated in a non-phytotoxic solvent mixture which included a surfactant.
(§3) At the same time, plants selected from these crop and weed species and also winter barley (Hordeum vulgare), canarygrass (Phalaris minor), chickweed (Stellaria media) and windgrass (Apera spica-venti) were treated with postemergence applications of some of the test chemicals formulated in the same manner. Plants ranged in height from 2 to 18 cm (1- to 4-leaf stage) for postemergence treatments.
(§4) Plant species in the flooded paddy test consisted of rice (Oryza sativa), umbrella sedge (Cyperus difformis), ducksalad (Heteranthera limosa) and barnyardgrass (Echinochloa crus-galli) grown to the 2-leaf stage for testing. At time of treatment, test pots were flooded to 3 cm above the soil surface, treated by application of test compounds directly to the paddy water, and then maintained at that water depth for the duration of the test. Treated plants and controls were maintained in a greenhouse for 13 to 15 days, after which time all species were compared to controls and visually evaluated. Plant response ratings, summarized in Table B, are based on a scale of 0 to 100 where 0 is no effect and 100 is complete control. A dash (-) response means no test result.

[9] = system: blackgrass (Alopecurus myosuroides); assay: Test B pre-/postemergence plant response; details: for Blackgrass plant response rating: 8 g ai/ha
Description: as §2, §3, §4

[10] = system: lambsquarters (Chenopodium album); assay: Test B pre-/postemergence plant response
Description: as §2, §3, §4

[11] = Postemergence, 31 g ai/ha, 0 to 100 scale, 0 no effect, 100 complete control
[12] = Postemergence, 125 g ai/ha, 0 to 100 scale, 0 no effect, 100 complete control
[13] = Preemergence, 31 g ai/ha, 0 to 100 scale, 0 is no effect, 100 is complete control
[14] = Preemergence, 125 g ai/ha, 0 to 100 scale (0 no effect, 100 complete control)
[15] = 8 g ai/ha, postemergence, 0-100 scale
[16] = Postemergence, 16 g ai/ha, scale 0 to 100
[17] = Postemergence, 31 g ai/ha, scale 0 to 100
[18] = Postemergence, 62 g ai/ha, scale 0 to 100, 0 no effect, 100 complete control
[19] = Preemergence, 62 g ai/ha, scale 0 to 100
[20] = Preemergence, 8 g ai/ha, scale 0 to 100
[21] = Preemergence, 16 g ai/ha, scale 0 to 100
[22] = Preemergence, 16 g ai/ha, scale 0 to 100 (0 no effect, 100 complete control)
[23] = Preemergence, 31 g ai/ha, 0 to 100 scale, 0 no effect, 100 complete control
[24] = Postemergence, 500 g ai/ha, 0 to 100 scale, 0 no effect, 100 complete control
[25] = Preemergence, 500 g ai/ha, 0 to 100 scale (0 no effect, 100 complete control)
[26] = Postemergence, 31 g ai/ha, scale 0 to 100, 0 no effect, 100 complete control
[27] = Postemergence, 62 g ai/ha, scale 0 to 100
[28] = Postemergence, 125 g ai/ha, scale 0 to 100
[29] = Preemergence, 125 g ai/ha, scale 0 to 100

CCOC(=O)Oc1cnn(C)c(=O)c1-n1nc(-c2ccc(Cl)cc2)cc1C [Compound 53]
Plant response rating, Pigweed [1, 11]: 0
Plant response rating, Pigweed [1, 12]: 0
Plant response rating, Pigweed [1, 13]: 0
Plant response rating, Pigweed [1, 14]: 0
Plant response rating, Wheat [2, 11]: 20
Plant response rating, Wheat [2, 12]: 70
Plant response rating, Wheat [2, 13]: 50
Plant response rating, Wheat [2, 14]: 90
Plant response rating, Foxtail, Giant [3, 11]: 90
Plant response rating, Foxtail, Giant [3, 12]: 100
Plant response rating, Foxtail, Giant [3, 13]: 100
Plant response rating, Foxtail, Giant [3, 14]: 100
Plant response rating, Velvetleaf [4, 11]: 0
Plant response rating, Velvetleaf [4, 12]: 0
Plant response rating, Velvetleaf [4, 13]: 0
Plant response rating, Velvetleaf [4, 14]: 0
Plant response rating, Corn (corn (Zea mays); [11]): 80
Plant response rating, Corn (corn (Zea mays); [12]): 90
Plant response rating, Corn (corn (Zea mays); [13]): 0
Plant response rating, Corn (corn (Zea mays); [14]): 70
Plant response rating, Crabgrass, Large [5, 11]: 80
Plant response rating, Crabgrass, Large [5, 12]: 100
Plant response rating, Crabgrass, Large [5, 13]: 90
Plant response rating, Crabgrass, Large [5, 14]: 100
Plant response rating, Morningglory [6, 11]: 0
Plant response rating, Morningglory [6, 12]: 20
Plant response rating, Morningglory [6, 13]: 0
Plant response rating, Morningglory [6, 14]: 0
Plant response rating, Barnyardgrass [7, 11]: 90
Plant response rating, Barnyardgrass [7, 12]: 100
Plant response rating, Barnyardgrass [7, 13]: 100
Plant response rating, Barnyardgrass [7, 14]: 100
Morningglory plant response rating [8, 15]: 0
Plant response rating, Morningglory [8, 16]: 0
Plant response rating, Morningglory [8, 17]: 0
Plant response rating, Morningglory [8, 18]: 0
Plant response rating, Morningglory ([8]; Preemergence, 31 g ai/ha, scale 0 to 100 (0 no effect, 100 complete control)): 0
Plant response rating, Morningglory [8, 19]: 0
Morningglory plant response rating [8, 20]: 0
Morningglory plant response rating [8, 21]: 0
Blackgrass plant response rating ([9]; postemergence, 0-100 scale): 30
Plant response rating, Blackgrass [9, 16]: 60
Plant response rating, Blackgrass [9, 17]: 95
Plant response rating, Blackgrass [9, 18]: 95
Plant response rating, Blackgrass [9, 22]: 100
Plant response rating, Blackgrass [9, 23]: 100
Plant response rating, Blackgrass [9, 19]: 100
Blackgrass plant response rating ([9]; Preemergence, scale 0 to 100): 95
Lambsquarters plant response rating [10, 15]: 0
Plant response rating, Lambsquarters [10, 16]: 0
Plant response rating, Lambsquarters [10, 17]: 0
Plant response rating, Lambsquarters [10, 18]: 0
Plant response rating, Lambsquarters [10, 23]: 0
Plant response rating, Lambsquarters [10, 19]: 35
Lambsquarters plant response rating [10, 20]: 0
Lambsquarters plant response rating [10, 21]: 0

CCc1cc(-c2ccc(C(F)(F)F)cc2)nn1-c1c(OC(=O)OC(C)C)cnn(C)c1=O [Compound 12]
Plant response rating, Pigweed [1, 12]: 0
Plant response rating, Pigweed [1, 24]: 0
Plant response rating, Pigweed [1, 14]: 0
Plant response rating, Pigweed [1, 25]: 0
Plant response rating, Wheat [2, 12]: 70
Plant response rating, Wheat [2, 24]: 90
Plant response rating, Wheat [2, 14]: 90
Plant response rating, Wheat [2, 25]: 100
Plant response rating, Foxtail, Giant [3, 12]: 80
Plant response rating, Foxtail, Giant [3, 24]: 100
Plant response rating, Foxtail, Giant [3, 14]: 100
Plant response rating, Foxtail, Giant [3, 25]: 100
Plant response rating, Velvetleaf [4, 12]: 0
Plant response rating, Velvetleaf [4, 24]: 0
Plant response rating, Velvetleaf [4, 14]: 0
Plant response rating, Velvetleaf [4, 25]: 0
Plant response rating, Corn (corn (Zea mays); [12]): 90
Plant response rating, Corn (corn (Zea mays); [24]): 90
Plant response rating, Corn (corn (Zea mays); [14]): 80
Plant response rating, Corn (corn (Zea mays); [25]): 90
Plant response rating, Crabgrass, Large [5, 12]: 90
Plant response rating, Crabgrass, Large [5, 24]: 100
Plant response rating, Crabgrass, Large [5, 14]: 100
Plant response rating, Crabgrass, Large [5, 25]: 100
Plant response rating, Morningglory [6, 12]: 0
Plant response rating, Morningglory [6, 24]: 0
Plant response rating, Morningglory [6, 14]: 0
Plant response rating, Morningglory [6, 25]: 0
Plant response rating, Barnyardgrass [7, 12]: 90
Plant response rating, Barnyardgrass [7, 24]: 100
Plant response rating, Barnyardgrass [7, 14]: 100
Plant response rating, Barnyardgrass [7, 25]: 100
Plant response rating, Morningglory [8, 16]: 0
Plant response rating, Morningglory [8, 26]: 0
Plant response rating, Morningglory [8, 27]: 0
Plant response rating, Morningglory [8, 28]: 40
Plant response rating, Morningglory [8, 22]: 0
Plant response rating, Morningglory [8, 23]: 0
Plant response rating, Morningglory [8, 19]: 0
Plant response rating, Morningglory [8, 29]: 0
Plant response rating, Blackgrass [9, 16]: 100
Plant response rating, Blackgrass [9, 26]: 100
Plant response rating, Blackgrass [9, 27]: 100
Plant response rating, Blackgrass [9, 28]: 100
Plant response rating, Blackgrass [9, 22]: 98
Plant response rating, Blackgrass [9, 23]: 100
Plant response rating, Blackgrass [9, 19]: 100
Plant response rating, Blackgrass [9, 29]: 100
Plant response rating, Lambsquarters [10, 16]: 0
Plant response rating, Lambsquarters [10, 26]: 0
Plant response rating, Lambsquarters [10, 27]: 0
Plant response rating, Lambsquarters [10, 28]: 40
Plant response rating, Lambsquarters [10, 22]: 0
Plant response rating, Lambsquarters [10, 23]: 0
Plant response rating, Lambsquarters [10, 29]: 0
